The values below come from publication PMC12881674, “Activation of TRPV3 channels in bladder cancer cells stimulates ATP release” (Molecular Pharmacology, 2025).

This assay deals with T1, mouse TRPV3 (Mus musculus, UniProt Q8K424).
T1 construct: expressed in transfected cells; host or cells: HEK293
T1 sequence (Q8K424 1-791): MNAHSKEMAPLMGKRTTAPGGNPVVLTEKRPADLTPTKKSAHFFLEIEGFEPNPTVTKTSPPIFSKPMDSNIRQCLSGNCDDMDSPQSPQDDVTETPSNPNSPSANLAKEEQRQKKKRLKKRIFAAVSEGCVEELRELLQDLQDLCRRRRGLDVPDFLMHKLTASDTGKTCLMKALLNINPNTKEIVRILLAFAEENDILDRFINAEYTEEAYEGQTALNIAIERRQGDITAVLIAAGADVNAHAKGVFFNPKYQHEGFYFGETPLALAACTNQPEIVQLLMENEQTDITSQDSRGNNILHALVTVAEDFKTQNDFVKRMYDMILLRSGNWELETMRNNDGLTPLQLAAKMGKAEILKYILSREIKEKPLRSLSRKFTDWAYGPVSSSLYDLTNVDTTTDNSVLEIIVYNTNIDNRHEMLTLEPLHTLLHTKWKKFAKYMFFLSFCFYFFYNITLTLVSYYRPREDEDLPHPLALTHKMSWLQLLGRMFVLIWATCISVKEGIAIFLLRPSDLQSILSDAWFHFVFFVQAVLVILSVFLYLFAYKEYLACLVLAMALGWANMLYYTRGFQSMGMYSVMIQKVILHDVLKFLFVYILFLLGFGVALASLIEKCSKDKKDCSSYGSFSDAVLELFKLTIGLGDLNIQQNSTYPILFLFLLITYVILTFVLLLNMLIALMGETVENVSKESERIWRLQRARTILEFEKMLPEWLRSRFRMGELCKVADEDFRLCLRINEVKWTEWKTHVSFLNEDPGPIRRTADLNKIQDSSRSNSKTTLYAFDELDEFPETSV
Kind of assay: whole-cell patch-clamp recordings in HEKmTRPV3 cells. It is filed as cell-based. On the procedure:
Whole-cell patch-clamp recordings were performed at room temperature using an […] amplifier connected to a Digidata 1440A digitizer under the control of the pCLAMP 10 software suite (Molecular Devices). Cells were plated onto PLL-coated glass coverslips 24–48 hours prior to recordings. […] The extracellular buffer consisted of 140 mM NaCl, 5 mM CsCl, 2 mM MgCl2, 1 mM CaCl2, and 10 mM HEPES, adjusted to pH 7.4 with NaOH. Recordings were performed with a liquid junction potential of +3.6 mV, which was not corrected. Voltage ramps ranging from −100 to 100 mV (500-millisecond duration) were applied at 1-second intervals. Series resistance was <15 MΩ and compensated by 70%. Only recordings with stable access resistance and minimal leak currents were included in the analysis. […]
Fig. 2 Electrophysiological analysis of AV3-1–activated TRPV3 currents in HEKmTRPV3 cells. […] Current amplitudes were recorded using voltage ramps from −100 mV to +100 mV (500-millisecond duration) such as in B and expressed as current density (pA/pF) measured at +100 mV and −100 mV. […] (C) Quantification of current densities (pA/pF) at −100 mV (inward current) and +100 mV (outward current) at the time points (1, 6–8) as indicated in (A). […] Statistical significance was determined using Kruskal-Wallis ANOVA followed by Conover test; ∗P < .05. […]
(In general: Patch clamp records ionic current or voltage across a cell membrane.)

In the case of `COC(=O)C12CN(Cc3ccccc3)CC1(C(=O)OC)CN(Cc1ccccc1)C2` (centres unmarked) [AV3-1], the “TRPV3 currents evoked by activator” value (5 μM AV3-1, voltage ramps -100 to +100 mV) is listed as “robust TRPV3-like currents”. In addition, the “reversibility of effect on TRPV3 upon washout” value (washout of 5 μM AV3-1) is given as “fully reversible”.
